Test results reported in article PMC7319900 (Nature, 2020).

Tests used:
BaiCD from C. hiranonis = target: T1, BaiCD from C. hiranonis (Peptacetobacter hiranonis, UniProt Q9RB48); experiment: LC-MS of acid-precipitated purified enzyme; assay type: binding; conditions: as purified after expression and lysis with added flavin
T1 sequence (Q9RB48 1-639): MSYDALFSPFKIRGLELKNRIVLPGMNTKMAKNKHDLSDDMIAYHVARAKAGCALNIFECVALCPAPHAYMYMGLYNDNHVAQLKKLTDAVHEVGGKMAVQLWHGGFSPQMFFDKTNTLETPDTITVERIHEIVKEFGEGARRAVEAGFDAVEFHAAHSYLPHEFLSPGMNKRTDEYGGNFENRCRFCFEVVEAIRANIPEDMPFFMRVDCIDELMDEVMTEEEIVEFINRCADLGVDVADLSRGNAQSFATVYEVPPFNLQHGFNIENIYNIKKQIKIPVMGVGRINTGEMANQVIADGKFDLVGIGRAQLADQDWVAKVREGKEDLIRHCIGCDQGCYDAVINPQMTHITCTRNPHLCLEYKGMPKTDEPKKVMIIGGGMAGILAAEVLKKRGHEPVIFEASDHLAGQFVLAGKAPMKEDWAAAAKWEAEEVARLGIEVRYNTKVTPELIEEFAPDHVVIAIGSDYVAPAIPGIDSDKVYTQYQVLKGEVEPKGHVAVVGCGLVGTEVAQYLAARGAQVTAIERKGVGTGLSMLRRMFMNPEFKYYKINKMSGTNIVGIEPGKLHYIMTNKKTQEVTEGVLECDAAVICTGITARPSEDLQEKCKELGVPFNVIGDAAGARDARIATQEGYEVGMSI

BaiH from C. scindens = target: T2, BaiH from C. scindens ([Clostridium] scindens, UniProt P32370); experiment: LC-MS of acid-precipitated purified enzyme; assay type: binding; conditions: as purified after expression and lysis with added flavin
T2 sequence (P32370 1-661): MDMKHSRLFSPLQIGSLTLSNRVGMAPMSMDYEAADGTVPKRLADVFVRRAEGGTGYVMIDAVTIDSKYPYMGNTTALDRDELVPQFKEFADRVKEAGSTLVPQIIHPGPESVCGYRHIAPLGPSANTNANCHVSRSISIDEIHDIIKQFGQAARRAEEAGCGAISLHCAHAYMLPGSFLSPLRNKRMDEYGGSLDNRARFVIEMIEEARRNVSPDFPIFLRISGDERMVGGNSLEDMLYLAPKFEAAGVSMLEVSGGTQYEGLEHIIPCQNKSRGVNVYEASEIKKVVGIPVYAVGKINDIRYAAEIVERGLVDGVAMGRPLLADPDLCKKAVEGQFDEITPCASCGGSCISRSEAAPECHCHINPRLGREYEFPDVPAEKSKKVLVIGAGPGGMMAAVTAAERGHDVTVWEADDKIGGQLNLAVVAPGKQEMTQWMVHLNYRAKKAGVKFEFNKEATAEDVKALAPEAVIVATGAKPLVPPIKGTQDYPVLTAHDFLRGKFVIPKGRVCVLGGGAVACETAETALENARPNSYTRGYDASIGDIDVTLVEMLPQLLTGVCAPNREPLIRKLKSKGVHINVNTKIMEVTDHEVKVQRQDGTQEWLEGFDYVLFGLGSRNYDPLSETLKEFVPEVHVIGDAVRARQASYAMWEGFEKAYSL

BaiA2 from C. scindens = target: T3, BaiA2 from C. scindens ([Clostridium] scindens, UniProt P19337); experiment: LC-MS extracted ion chromatograms; assay type: biochemical; conditions: reduction to DCA; experiment performed once
T3 sequence (P19337 1-249): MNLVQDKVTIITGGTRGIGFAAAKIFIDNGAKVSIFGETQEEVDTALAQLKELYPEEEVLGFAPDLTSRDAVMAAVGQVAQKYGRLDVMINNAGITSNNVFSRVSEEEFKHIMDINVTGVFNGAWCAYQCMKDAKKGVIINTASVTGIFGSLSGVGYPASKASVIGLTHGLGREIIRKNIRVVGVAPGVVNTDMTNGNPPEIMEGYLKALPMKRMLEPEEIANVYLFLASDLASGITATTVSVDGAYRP

Structure (SMILES)	LC-MS of acid-precipitated purified enzyme; UV-vis (BaiCD from C. hiranonis)	LC-MS of acid-precipitated purified enzyme; UV-vis (BaiH from C. scindens)	LC-MS extracted ion chromatograms (BaiA2 from C. scindens)
Cc1cc2nc3c(=O)[nH]c(=O)nc-3n(C[C@H](O)[C@H](O)[C@H](O)COP(=O)(O)O)c2cc1C [FMN]	The presence of FAD and FMN were confirmed by precipitating purified enzyme with sulfuric acid	The presence of FAD and FMN were confirmed by precipitating purified enzyme with sulfuric acid	
C[C@H](CCC(=O)O)[C@H]1CC[C@H]2[C@@H]3CC[C@@H]4CC(=O)CC[C@]4(C)[C@H]3C[C@H](O)[C@]12C [compound 8, 3-oxo-deoxycholic acid]			conversion of 3-oxo-DCA to DCA by recombinant BaiA2
Cc1cc2nc3c(=O)[nH]c(=O)nc-3n(C[C@H](O)[C@H](O)[C@H](O)COP(=O)(O)OP(=O)(O)OC[C@H]3O[C@@H](n4cnc5c(N)ncnc54)[C@H](O)[C@@H]3O)c2cc1C [FAD]	The presence of FAD and FMN were confirmed by precipitating purified enzyme with sulfuric acid	The presence of FAD and FMN were confirmed by precipitating purified enzyme with sulfuric acid	
